“And” between values parts separate entries of the source, which are not always exact repeats. Equal entries are not always repeated.
Assays:
[1] = test system: Caco-2 cells; assay: Cytotoxicity in Caco-2 cells, CCK-8 assay; assay type: cell-based, human; details: for Cell survival rate%: mean; for cck-8 mean (survival fraction): mean of 6
Description: Caco-2 cells were cultured in 96-well plates for 48 h at a seeding density of 5.0 × 10^3 cells/well before the addition of drugs. […] The final concentration of DMSO was 0.05% (v/v). Experiments were initiated by replacing the culture medium in each well with 100 μL of sample solutions at 37°C in the CO2 incubator. After 48 h of incubation, the medium was removed and 10 μL of CCK-8 reagent in the serum-free medium was added to each well. The plates were then incubated at 37°C for another 2 h. At the end of the incubation period, the plates were quantified by reading the absorbance at 450 nm on a micro-plate multi-detection instrument, SpectraMax iD3 with SoftMax® Pro (Molecular Devices Corporation Sunnyvale, CA, USA). The percentage of cell viability was calculated based on the absorbance measured relative to the absorbance of cells exposed to the negative control.

[2] = Stability of the five compounds in SD rat plasma (QC samples, UHPLC-ESI-MS/MS); assay type: in vitro ADME; details: for 3 freeze-thaw cycles mean ± SD / 7 days at -80°C mean ± SD / Room temperature 24h mean ± SD: SD rat plasma QC sample; for stability, Accuracy (measured versus nominal concentration) / stability, mean ± SD (measured concentration): SD rat plasma, n=5
[3] = male, Sprague Dawley, rat, in vivo, po, 352 mg/kg
[4] = in vivo; details: male, Sprague Dawley, rat, po, 352 mg/kg
[5] = Caco-2, concentration 10 μmol/L
[6] = Caco-2, concentration 20 μmol/L
[7] = Caco-2, concentration 40 μmol/L
[8] = Caco-2, concentration 80 μmol/L
[9] = nominal 20 ng/mL, 3 freeze-thaw cycles
[10] = nominal 20 ng/mL, 7 days at -80°C
[11] = nominal 1000 ng/mL, 3 freeze-thaw cycles
[12] = nominal 1000 ng/mL, 7 days at -80°C
[13] = nominal 5000 ng/mL, 3 freeze-thaw cycles
[14] = nominal 5000 ng/mL, 7 days at -80°C
[15] = nominal 20 ng/mL, Room temperature 24h
[16] = nominal 1000 ng/mL, Room temperature 24h
[17] = nominal 5000 ng/mL, Room temperature 24h

SMILES: C[C@@H]1CC[C@H]2[C@@H](C)C(=O)O[C@@H]3O[C@@]4(C)CC[C@@H]1[C@]32O4 [DEART, Deoxyartemisinin]
- Cell survival rate%, single replicate ([1]; Caco-2, 5μmol/L): 87.61% and 87.6% and 80.17% and 81.51% and 81.61% and 87.86%
- Cell survival rate%, single replicate ([1]; Caco-2, 10μmol/L): 81.2% and 82.86% and 82.71% and 83.82% and 87.89% and 87.9%
- Cell survival rate%, single replicate ([1]; Caco-2, 20μmol/L): 86.78% and 81.42% and 81.32% and 82.7% and 86.07% and 80.23%
- Cell survival rate%, single replicate ([1]; Caco-2, 40μmol/L): 83.23% and 82.76% and 82.72% and 82.4% and 81.01% (2×)
- Cell survival rate%, single replicate ([1]; Caco-2, 80μmol/L): 79.21% and 80.38% and 82.01% and 81.79% and 85.15% and 82.39%
- cck-8 cell survival as fraction, single replicate ([1]; Caco-2, concentration 5 μmol/L): 0.8761 and 0.876 and 0.8017 and 0.8151 and 0.8161 and 0.8786
- Cell survival rate% ([1]; Caco-2, concentration 5 μmol/L): 84.39%
- cck-8 mean (survival fraction) ([1]; Caco-2, concentration 5 μmol/L): 0.84
- cck-8 cell survival as fraction, single replicate [1, 5]: 0.812 and 0.8286 and 0.8271 and 0.8382 and 0.8789 and 0.879
- Cell survival rate% [1, 5]: 84.40%
- cck-8 mean (survival fraction) [1, 5]: 0.84
- cck-8 cell survival as fraction, single replicate [1, 6]: 0.8678 and 0.8142 and 0.8132 and 0.827 and 0.8607 and 0.8023
- Cell survival rate% [1, 6]: 83.09%
- cck-8 mean (survival fraction) [1, 6]: 0.83
- cck-8 cell survival as fraction, single replicate [1, 7]: 0.8323 and 0.8276 and 0.8272 and 0.824 and 0.8101
- Cell survival rate% [1, 7]: 82.19%
- cck-8 mean (survival fraction) [1, 7]: 0.82
- cck-8 cell survival as fraction, single replicate [1, 8]: 0.7921 and 0.8038 and 0.8201 and 0.8179 and 0.8515 and 0.8239
- Cell survival rate% [1, 8]: 81.82%
- cck-8 mean (survival fraction) [1, 8]: 0.82
- Stability in plasma, measured concentration (mean ± SD) ([2]; 3 freeze-thaw cycles, QC concentration 20 ng/mL): 21.4 ± 1.03 ng/mL
- Stability in plasma, measured concentration (mean ± SD) ([2]; 3 freeze-thaw cycles, QC concentration 1000 ng/mL): 1069 ± 21.8 ng/mL
- Stability in plasma, measured concentration (mean ± SD) ([2]; 3 freeze-thaw cycles, QC concentration 5000 ng/mL): 4765 ± 110 ng/mL
- Stability in plasma, measured concentration (mean ± SD) ([2]; 7 days at -80°C, QC concentration 20 ng/mL): 21.1 ± 1.73 ng/mL
- Stability in plasma, measured concentration (mean ± SD) ([2]; 7 days at -80°C, QC concentration 1000 ng/mL): 1069 ± 21.6 ng/mL
- Stability in plasma, measured concentration (mean ± SD) ([2]; 7 days at -80°C, QC concentration 5000 ng/mL): 4705 ± 267 ng/mL
- Stability, measured concentration, mean ± SD ([2]; QC sample 20 ng/mL, 3 freeze-thaw cycles): 21.4 ± 1.03 ng/mL
- Stability, measured concentration, mean ± SD ([2]; QC sample 20 ng/mL, 7 days at -80°C): 21.1 ± 1.73 ng/mL
- Stability, measured concentration, mean ± SD ([2]; QC sample 20 ng/mL, Room temperature 24h): 21.6 ± 0.78 ng/mL
- Stability, measured concentration, mean ± SD ([2]; QC sample 1000 ng/mL, 3 freeze-thaw cycles): 1069 ± 21.8 ng/mL
- Stability, measured concentration, mean ± SD ([2]; QC sample 1000 ng/mL, 7 days at -80°C): 1069 ± 21.6 ng/mL
- Stability, measured concentration, mean ± SD ([2]; QC sample 1000 ng/mL, Room temperature 24h): 1093 ± 39.5 ng/mL
- Stability, measured concentration, mean ± SD ([2]; QC sample 5000 ng/mL, 3 freeze-thaw cycles): 4765 ± 110 ng/mL
- Stability, measured concentration, mean ± SD ([2]; QC sample 5000 ng/mL, 7 days at -80°C): 4705 ± 267 ng/mL
- Stability, measured concentration, mean ± SD ([2]; QC sample 5000 ng/mL, Room temperature 24h): 5205 ± 494 ng/mL
- Stability in plasma, measured concentration (mean ± SD) ([2]; Room temperature 24h, QC concentration 20 ng/mL): 21.6 ± 0.78 ng/mL
- Stability in plasma, measured concentration (mean ± SD) ([2]; Room temperature 24h, QC concentration 1000 ng/mL): 1093 ± 39.5 ng/mL
- Stability in plasma, measured concentration (mean ± SD) ([2]; Room temperature 24h, QC concentration 5000 ng/mL): 5205 ± 494 ng/mL
- 3 freeze-thaw cycles mean ± SD [2, 9]: 21.4 ± 1.03 ng/mL and 21.3622 ng/mL
- 7 days at -80°C mean ± SD [2, 10]: 21.1 ± 1.73 ng/mL and 21.1491 ng/mL
- Room temperature 24h mean ± SD ([2]; nominal 20 ng/mL): 21.6 ± 0.78 ng/mL and 21.6437 ng/mL
- 3 freeze-thaw cycles mean ± SD [2, 11]: 1069 ± 21.8 ng/mL and 1069.41 ng/mL
- 7 days at -80°C mean ± SD [2, 12]: 1069 ± 21.6 ng/mL and 1068.61 ng/mL
- Room temperature 24h mean ± SD ([2]; nominal 1000 ng/mL): 1093 ng/mL and 1093 ± 39.5 ng/mL
- 3 freeze-thaw cycles mean ± SD [2, 13]: 4765 ± 110 ng/mL and 4765.19 ng/mL
- 7 days at -80°C mean ± SD [2, 14]: 4705 ± 267 ng/mL and 4704.92 ng/mL
- Room temperature 24h mean ± SD ([2]; nominal 5000 ng/mL): 5205.17 ng/mL and 5205 ± 494 ng/mL
- stability, Accuracy (measured versus nominal concentration) [2, 9]: 106.81%
- stability, mean ± SD (measured concentration) [2, 9]: 21.4 ± 1.03 ng/mL
- stability, Accuracy (measured versus nominal concentration) [2, 10]: 105.75%
- stability, mean ± SD (measured concentration) [2, 10]: 21.1 ± 1.73 ng/mL
- stability, Accuracy (measured versus nominal concentration) [2, 15]: 108.22%
- stability, mean ± SD (measured concentration) [2, 15]: 21.6 ± 0.78 ng/mL
- stability, Accuracy (measured versus nominal concentration) [2, 11]: 106.94%
- stability, mean ± SD (measured concentration) [2, 11]: 1069 ± 21.8 ng/mL
- stability, Accuracy (measured versus nominal concentration) [2, 12]: 106.86%
- stability, mean ± SD (measured concentration) [2, 12]: 1069 ± 21.6 ng/mL
- stability, Accuracy (measured versus nominal concentration) [2, 16]: 109.30%
- stability, mean ± SD (measured concentration) [2, 16]: 1093 ± 39.5 ng/mL
- stability, Accuracy (measured versus nominal concentration) [2, 13]: 95.30%
- stability, mean ± SD (measured concentration) [2, 13]: 4765 ± 110 ng/mL
- stability, Accuracy (measured versus nominal concentration) [2, 14]: 94.10%
- stability, mean ± SD (measured concentration) [2, 14]: 4705 ± 267 ng/mL
- stability, Accuracy (measured versus nominal concentration) [2, 17]: 104.10%
- stability, mean ± SD (measured concentration) [2, 17]: 5205 ± 494 ng/mL
- CL [3]: 0.024 ± 0.003 L/h
- Vz [3]: 0.135 ± 0.049 L
- AUC(0-inf) [4]: 848 ± 111 ng·h/mL
- AUC(0-t) [4]: 750 ± 114 ng·h/mL
- Cmax ([4]; Cmax): 143 ± 37.3 ng/mL
- MRT last ([4]; MRT(0-t)): 4.04 ± 0.427 h
- MRT inf ([4]; MRT(0-∞)): 6.12 ± 1.34 h
- half-life ([4]; t1/2): 3.94 ± 1.57 h
